{"source": "ChEMBL document CHEMBL3351580", "about": "“Pyrano-isochromanones as IL-6 inhibitors: synthesis, in vitro and in vivo antiarthritic activity” (J Med Chem, 2014)", "key": {"[1]": {"assay": "Inhibition of concanavalin A-induced cell proliferation of T cells (unknown origin) at 10 uM after 72 hrs by MTT assay", "assay_type": "functional"}, "B-cell": {"tested_on": "B-cell", "assay": "Inhibition of LPS-induced cell proliferation of B cells (unknown origin) at 10 uM after 72 hrs by MTT assay", "assay_type": "functional"}, "THP-1 [2]": {"tested_on": "THP-1", "assay": "Inhibition of LPS-induced IL6 production in human THP1 cells after 24 hrs", "assay_type": "functional, cell-based", "conditions": "THP-1, 24 h"}, "THP-1 [3]": {"tested_on": "THP-1", "assay": "Inhibition of LPS-induced TNFalpha production in human THP1 cells after 24 hrs", "assay_type": "functional, cell-based", "conditions": "THP-1, 24 h"}, "THP-1 [4]": {"tested_on": "THP-1", "assay": "Inhibition of LPS-induced IL-1beta production in human THP1 cells at 10 uM after 24 hrs", "assay_type": "functional", "conditions": "THP-1, 24 h"}, "THP-1 [5]": {"tested_on": "THP-1", "assay": "Inhibition of LPS-induced nitric oxide production in human THP1 cells at 10 uM after 24 hrs by Griess assay", "assay_type": "functional", "conditions": "THP-1, 24 h"}, "THP-1 [6]": {"tested_on": "THP-1", "assay": "Cytotoxicity against human THP1 cells after 24 hrs by MTT assay", "assay_type": "cell-based", "conditions": "THP-1, 24 h"}, "THP-1 [7]": {"tested_on": "THP-1", "assay": "Cytotoxicity against human THP1 cells after 48 hrs by MTT assay", "assay_type": "cell-based", "conditions": "THP-1, 48 h"}, "[8]": {"assay": "Therapeutic index, ratio of cytotoxic IC50 for human THP1 cells by MTT assay to IC50 for inhibition of LPS-induced IL6 production in human THP1 cells", "assay_type": "cell-based, THP-1", "conditions": "read-out: Ratio IC50"}, "Mus musculus [9]": {"tested_on": "Mus musculus", "assay": "Antiinflammatory activity in BALB/c mouse assessed as serum TNFalpha level at 10 mg/kg, po qd for 5 days followed by LPS challenge 1 hr after last compound dose on fifth day and measured 4 hrs post LPS challenge by ELISA method (reference value: 717 +/- 218 pg/mL)", "assay_type": "functional"}, "Mus musculus [10]": {"tested_on": "Mus musculus", "assay": "Antiinflammatory activity in BALB/c mouse assessed as serum IL6 level at 10 mg/kg, po qd for 5 days followed by LPS challenge 1 hr after last compound dose on fifth day and measured 4 hrs post LPS challenge by ELISA method (reference value: 410 +/- 95 pg/mL)", "assay_type": "functional"}, "Mus musculus [11]": {"tested_on": "Mus musculus", "assay": "Antiinflammatory activity in BALB/c mouse assessed as serum nitric oxide level at 10 mg/kg, po qd for 5 days followed by LPS challenge 1 hr after last compound dose on fifth day and measured 4 hrs post LPS challenge by Griess assay (reference value: 6.95 +/- 1.81 uM)", "assay_type": "functional"}, "Mus musculus [12]": {"tested_on": "Mus musculus", "assay": "Antiinflammatory activity in BALB/c mouse assessed as serum nitric oxide level at 100 mg/kg, po qd for 5 days followed by LPS challenge 1 hr after last compound dose on fifth day and measured 4 hrs post LPS challenge by Griess assay (reference value: 6.95 +/- 1.81 uM)", "assay_type": "functional"}, "Mus musculus [13]": {"tested_on": "Mus musculus", "assay": "Antiarthritic activity in BALB/c mouse assessed as reduction in SRBC-induced blood IFNgamma level administered orally once daily for 14 days measured 4 hrs post last dose by ELISA method", "assay_type": "functional, organism-based"}, "Mus musculus [14]": {"tested_on": "Mus musculus", "assay": "Antiarthritic activity in BALB/c mouse assessed as reduction in SRBC-induced blood IL2 level administered orally once daily for 14 days measured 4 hrs post last dose by ELISA method", "assay_type": "functional, organism-based"}, "Mus musculus [15]": {"tested_on": "Mus musculus", "assay": "Immunosuppressive activity in BALB/c mouse assessed as reduction in SRBC-induced humoral immunity by measuring IgG level at 3 to 30 mg/kg, po administered once daily for 14 days measured 4 hrs post last dose", "assay_type": "functional, organism-based"}, "Mus musculus [16]": {"tested_on": "Mus musculus", "assay": "Immunosuppressive activity in BALB/c mouse assessed as reduction in SRBC-induced DTH response at 3 to 30 mg/kg, po administered once daily for 14 days measured 4 hrs post last dose", "assay_type": "functional, organism-based"}, "Mus musculus [17]": {"tested_on": "Mus musculus", "assay": "Antiarthritic activity in DBA/1J mouse collagen-induced arthritis model assessed as reduction in paw swelling at 30 mg/kg, po administered once daily for 49 days starting from onset of disease", "assay_type": "functional", "conditions": "1176 h"}, "Mus musculus [18]": {"tested_on": "Mus musculus", "assay": "Antiarthritic activity in DBA/1J mouse collagen-induced arthritis model assessed as reduction in anticollagen antibody IgG1 level at 3 to 30 mg/kg, po administered once daily for 49 days starting from onset of disease and measured after 49 days of disease onset by ELISA method", "assay_type": "functional, organism-based"}, "Mus musculus [19]": {"tested_on": "Mus musculus", "assay": "Antiarthritic activity in DBA/1J mouse collagen-induced arthritis model assessed as reduction in anticollagen antibody IgG2a level at 3 to 30 mg/kg, po administered once daily for 49 days starting from onset of disease and measured after 49 days of disease onset by ELISA method", "assay_type": "functional, organism-based"}, "Mus musculus [20]": {"tested_on": "Mus musculus", "assay": "Antiarthritic activity in DBA/1J mouse collagen-induced arthritis model assessed as reduction in TNFalpha level at 3 to 30 mg/kg, po administered once daily for 49 days starting from onset of disease and measured after 3 to 49 days of disease onset by ELISA method", "assay_type": "functional, organism-based"}, "Mus musculus [21]": {"tested_on": "Mus musculus", "assay": "Antiarthritic activity in DBA/1J mouse collagen-induced arthritis model assessed as reduction in IL6 level at 3 to 30 mg/kg, po administered once daily for 49 days starting from onset of disease and measured after 3 to 49 days of disease onset by ELISA method", "assay_type": "functional, organism-based"}, "Mus musculus [22]": {"tested_on": "Mus musculus", "assay": "Antiarthritic activity in DBA/1J mouse collagen-induced arthritis model assessed as reduction in IL-1beta level at 3 to 30 mg/kg, po administered once daily for 49 days starting from onset of disease and measured after 3 to 49 days of disease onset by ELISA method", "assay_type": "functional, organism-based"}, "[23]": {"assay": "Solubility in PBS buffer", "assay_type": "physicochemical"}, "[24]": {"assay": "Solubility in SGF solution", "assay_type": "physicochemical"}, "CYP3A4": {"target": "CYP3A4 (Homo sapiens, UniProt P08684)", "sequence (P08684 whole entry)": "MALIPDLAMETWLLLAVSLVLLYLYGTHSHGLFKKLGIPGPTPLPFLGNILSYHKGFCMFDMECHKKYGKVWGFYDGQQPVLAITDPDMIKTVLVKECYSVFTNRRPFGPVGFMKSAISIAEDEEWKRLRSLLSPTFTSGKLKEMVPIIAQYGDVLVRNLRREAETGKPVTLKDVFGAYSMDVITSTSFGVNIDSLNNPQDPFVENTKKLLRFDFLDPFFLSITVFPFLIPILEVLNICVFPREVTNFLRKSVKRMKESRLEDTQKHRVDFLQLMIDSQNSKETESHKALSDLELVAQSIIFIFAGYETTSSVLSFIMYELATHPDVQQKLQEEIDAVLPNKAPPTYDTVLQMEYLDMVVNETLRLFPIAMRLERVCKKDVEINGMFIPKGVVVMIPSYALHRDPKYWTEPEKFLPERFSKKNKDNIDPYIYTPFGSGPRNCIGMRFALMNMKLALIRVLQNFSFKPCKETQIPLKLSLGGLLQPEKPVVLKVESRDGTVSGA", "assay": "Inhibition of CYP3A4 (unknown origin) at 10 uM", "assay_type": "ADME"}, "Cytochrome P450 2D6": {"target": "Cytochrome P450 2D6 (Homo sapiens, UniProt P10635)", "sequence (P10635 whole entry)": "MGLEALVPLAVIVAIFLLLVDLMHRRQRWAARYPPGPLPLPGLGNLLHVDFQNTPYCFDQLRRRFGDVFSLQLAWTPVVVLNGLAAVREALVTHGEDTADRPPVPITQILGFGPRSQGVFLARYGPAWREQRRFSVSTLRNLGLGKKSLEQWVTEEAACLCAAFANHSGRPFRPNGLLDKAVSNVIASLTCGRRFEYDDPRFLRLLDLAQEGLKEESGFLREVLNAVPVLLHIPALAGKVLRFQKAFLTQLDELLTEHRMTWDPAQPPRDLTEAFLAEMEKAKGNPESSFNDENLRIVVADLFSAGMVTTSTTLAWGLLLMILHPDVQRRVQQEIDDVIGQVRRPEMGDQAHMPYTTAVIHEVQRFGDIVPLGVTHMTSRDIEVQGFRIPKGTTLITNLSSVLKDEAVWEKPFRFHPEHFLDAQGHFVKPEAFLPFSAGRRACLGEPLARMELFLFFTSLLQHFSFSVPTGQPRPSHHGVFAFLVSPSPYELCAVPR", "assay": "Activation of CYP2D6 (unknown origin) assessed as increase in enzyme activity at 10 uM", "assay_type": "ADME"}, "CYP2C9": {"target": "CYP2C9 (Homo sapiens, UniProt P11712)", "sequence (P11712 whole entry)": "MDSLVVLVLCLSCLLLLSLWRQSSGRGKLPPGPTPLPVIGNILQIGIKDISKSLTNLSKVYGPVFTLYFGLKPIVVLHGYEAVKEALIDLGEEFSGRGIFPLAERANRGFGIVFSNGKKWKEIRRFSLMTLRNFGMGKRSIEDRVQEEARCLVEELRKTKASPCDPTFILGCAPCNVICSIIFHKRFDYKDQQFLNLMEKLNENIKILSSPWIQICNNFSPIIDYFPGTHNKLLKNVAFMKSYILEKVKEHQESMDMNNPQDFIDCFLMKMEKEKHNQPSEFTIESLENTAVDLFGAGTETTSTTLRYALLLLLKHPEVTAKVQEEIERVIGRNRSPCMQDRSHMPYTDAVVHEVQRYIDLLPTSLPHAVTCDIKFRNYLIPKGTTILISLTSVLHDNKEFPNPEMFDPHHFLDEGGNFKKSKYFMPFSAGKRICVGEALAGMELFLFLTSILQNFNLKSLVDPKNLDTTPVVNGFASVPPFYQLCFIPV", "assay": "Inhibition of CYP2C9 (unknown origin) at 10 uM", "assay_type": "ADME"}, "Cytochrome P450 1A2": {"target": "T1, Cytochrome P450 1A2 (Homo sapiens, UniProt P05177)", "T1 sequence (P05177 whole entry)": "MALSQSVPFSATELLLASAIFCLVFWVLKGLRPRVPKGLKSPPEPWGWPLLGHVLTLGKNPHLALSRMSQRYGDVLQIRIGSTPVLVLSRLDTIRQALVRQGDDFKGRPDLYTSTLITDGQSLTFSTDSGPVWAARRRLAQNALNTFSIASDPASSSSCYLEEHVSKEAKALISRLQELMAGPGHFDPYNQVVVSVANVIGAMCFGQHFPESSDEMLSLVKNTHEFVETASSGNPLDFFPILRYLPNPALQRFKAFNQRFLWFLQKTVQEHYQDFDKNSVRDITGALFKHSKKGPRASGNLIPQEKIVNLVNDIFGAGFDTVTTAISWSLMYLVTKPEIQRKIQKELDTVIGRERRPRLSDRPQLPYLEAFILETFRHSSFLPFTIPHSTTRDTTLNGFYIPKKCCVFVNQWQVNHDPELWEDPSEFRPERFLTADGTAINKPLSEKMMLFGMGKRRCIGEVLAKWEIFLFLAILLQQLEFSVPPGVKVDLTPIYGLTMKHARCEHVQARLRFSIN", "assay": "Activation of CYP1A2 (unknown origin) assessed as increase in enzyme activity at 10 uM", "assay_type": "ADME"}, "[25]": {"assay": "Apparent permeability from apical to basolateral side in human Caco2 cells", "assay_type": "ADME, cell-based", "conditions": "Caco-2"}, "[26]": {"assay": "Apparent permeability from basolateral to apical side in human Caco2 cells", "assay_type": "ADME, cell-based", "conditions": "Caco-2"}, "[27]": {"assay": "Efflux ratio in human Caco2 cells", "assay_type": "ADME, cell-based", "conditions": "Caco-2"}}, "note": "Activity calls are given as the source filed them. The rule behind the calls is not given here.", "data": [{"smiles": "CCN(CC)Cc1c(O)c(OC)c(O)c2c1C(=O)O[C@@H]1[C@@H](O)[C@H](O)[C@@H](CO)O[C@@H]21", "values": [{"measurement": "inhibition at 10 µM", "setting": "[1]", "value": 53.7, "unit": "%"}, {"measurement": "inhibition at 10 µM", "setting": "B-cell", "value": 47.9, "unit": "%"}, {"measurement": "IC50", "setting": "THP-1 [2]", "value": 0.166, "unit": "µM"}, {"measurement": "IC50", "setting": "THP-1 [3]", "value": 13.4, "unit": "µM"}, {"measurement": "inhibition at 10 µM", "setting": "THP-1 [4]", "value": 41, "unit": "%"}, {"measurement": "inhibition at 10 µM", "setting": "THP-1 [5]", "value": 41, "unit": "%"}, {"measurement": "IC50", "setting": "THP-1 [6]", "value": 110, "unit": "µM"}, {"measurement": "IC50", "setting": "THP-1 [7]", "value": 77, "unit": "µM"}, {"measurement": "selectivity ratio", "setting": "[8]", "value": "> 400"}, {"measurement": "Activity", "setting": "Mus musculus [9]", "value": 585, "unit": "pg/mL"}, {"measurement": "Activity", "setting": "Mus musculus [10]", "value": 102, "unit": "pg/mL"}, {"measurement": "Activity", "setting": "Mus musculus [11]", "value": 5, "unit": "µM"}, {"measurement": "Activity", "setting": "Mus musculus [12]", "value": 3, "unit": "µM"}, {"measurement": "inhibition", "setting": "Mus musculus [13]", "value": "Dose-dependent effect"}, {"measurement": "inhibition", "setting": "Mus musculus [14]", "value": "Dose-dependent effect"}, {"measurement": "inhibition", "setting": "Mus musculus [15]", "value": "Active"}, {"measurement": "inhibition", "setting": "Mus musculus [16]", "value": "Active"}, {"measurement": "inhibition in vivo at 30 mg/kg", "setting": "Mus musculus [17]", "value": 28, "unit": "%"}, {"measurement": "inhibition", "setting": "Mus musculus [18]", "value": "Active"}, {"measurement": "inhibition", "setting": "Mus musculus [19]", "value": "Active"}, {"measurement": "inhibition", "setting": "Mus musculus [20]", "value": "Active"}, {"measurement": "inhibition", "setting": "Mus musculus [21]", "value": "Active"}, {"measurement": "inhibition", "setting": "Mus musculus [22]", "value": "Active"}, {"measurement": "solubility", "setting": "[23]", "value": "> 1500", "unit": "µg/mL"}, {"measurement": "solubility", "setting": "[24]", "value": "> 1500", "unit": "µg/mL"}, {"measurement": "inhibition at 10 µM", "setting": "CYP3A4", "value": 15, "unit": "%"}, {"measurement": "Activity", "setting": "Cytochrome P450 2D6", "value": 36, "unit": "%"}, {"measurement": "inhibition at 10 µM", "setting": "CYP2C9", "value": 32, "unit": "%"}, {"measurement": "Activity", "setting": "Cytochrome P450 1A2", "value": 10, "unit": "%"}, {"measurement": "Papp A→B", "setting": "[25]", "value": 0.72, "unit": "×10⁻⁶ cm/s"}, {"measurement": "Papp B→A", "setting": "[26]", "value": 1.59, "unit": "×10⁻⁶ cm/s"}, {"measurement": "efflux ratio", "setting": "[27]", "value": 2.2}]}]}
